Data published in US12648939B2, “Compounds and methods for treating spasticity” (Lexicon Pharmaceuticals, Inc., priority 2022, dated 2026).

Key:
[1] = tested on: rat model of spasticity induced by complete spinal cord transection; assay: Rate-dependent depression (RDD) of the H-reflex in SCI rats; assay type: in vivo; conditions: for mean relative amplitudes of the H-reflex (RDD) / mean relative amplitudes of the H-reflex (RDD), effect on spasticity: SCI rats 5 weeks after injury; for duration of action (H-reflex RDD): recordings up to 6 hours
Experimental: (§1) The efficacy of Compound 1 was measured in a rat model of spasticity induced by complete spinal cord transection. To induce muscle spasticity, a model of complete spinal cord transection cord at the eighth thoracic (T8) vertebral level was used. Five weeks after the Spinal Cord Injury (SCI), the rats were orally (P.O.) treated with Compound 1 (3, 10, or 30 mg/kg), Baclofen (4.5 mg/kg). Tizanidine (3 mg/kg) or vehicles alone (0.9% NaCl, Compound 1 vehicle), and the degree of spasticity response was measured using the rate-dependent depression (RDD) of the Hoffmann's reflex (H-reflex) and spasms induction.
(§2) Materials and Methods. […] One hundred and fifty-one SCI rats were maintained up to the end of the 5th post-injury week. One hundred and forty rats were submitted to P.O. administration of the test compounds and EMG analysis.
(§3) The rat was firmly restrained to immobilize the head. In an upright position, the gavage needle was passed along the side of the mouth. Following the roof of the mouth, the needle was advanced into the esophagus and toward the stomach. After the needle is passed to the correct length, the compound was slowly injected. The rats were randomly assigned to one of the test groups:
(§4) Electroneuromyographical recordings were performed in the right hind limbs before and 1, 2, 3, 4, 5 and 6 hours after P.O. administration.
(§5) Electromyographical (EMG) signals were amplified (100×) and bandpass filtered (300 Hz to 5 kHz; A-M Systems Amplifier. Everett, Washington; model 1700) before sampling at 13.5 kHz (Digidata 1440A, Molecular Devices). The tibial nerve was stimulated by using square pulses with increasing stimulus intensities (0.2 mA increments starting from 0.2 mA, 0.2 Hz, 0.2 ms; A-M systems stimulator, Model 2100) to obtain recruitment curves.
RDD of the H-reflex: To induce sedation, intraperitoneal injection of ketamine (100 mg/kg; Imalgen®) was used to suppress voluntary movements and increase muscle tone. Rats thorax and hindlimbs were secured on a heating pad with adhesive tape. The following series of measurements were repeated throughout the experiment: • 1. Hmax and Mmax determination: the tibial nerve was stimulated for 0.2 ms at 0.2 Hz with increasing current intensities (1-6 mA in 0.1 mA increments) until Mmax was stabilized. • 2. RDD measurement: the intensity necessary to obtain a maximal H-reflex was used for trains of 13 stimulations at 0.2, 1, 2 and 5 Hz with 2 min intervals between each train of stimulations. A whole series of measurements lasted about 15 minutes. • 3. Determination of the level of RDD: at the different frequencies, responses to the first three stimulations necessary for the depression to occur were discarded, and all the responses were expressed as percentages relative to the mean response at 0.2 Hz in the same series of measurements.
(§6) Data analysis: H-reflex RDDs and areas under the curves (AUC) were determined as a measurement of spasticity and analyzed at each time point and for each frequency with Mann-Whitney test or with Kruskal Wallis one-way analysis of variance (ANOVA) test, followed by Dunn's multiple comparisons test. P<0.05 was considered significant. Significant differences were marked with asterisks (*) according to their respective P-values: values were expressed as the mean value±standard error of the mean (SEM) in all graphs. All statistical analyses were performed using GraphPad Prism 7 (San Diego, California, USA).
Modulation of the RDD of the H-reflex. The Hoffmann reflex was used to assess primary (type 1a) afferents-mediated motoneuronal excitability in rats suffering from spasticity. Electromyograms typically show two responses: an initial M wave (FIG. 6B) resulting from the direct activation of motor axons (FIG. 6A-1), and a delayed H wave (FIG. 6B) resulting from the monosynaptic activation of motoneurons by the afferents (FIG. 6A-2). […]

[2] = tested on: rat model of spasticity induced by complete spinal cord transection; assay: Muscle spasms evoked by tibial nerve stimulation in chronic SCI rats; assay type: in vivo; conditions: for duration of action (muscle spasms): recordings up to 6 hours
Experimental: as §1, §2, §3, §4, §5
Muscles spasms: In awake chronic SCI rats, muscle spasms were evoked with stimulation of the tibial nerve while performing electromyographic (EMG) recordings from the flexor digitorum brevis (FDB) muscle. Spastic spinal rats were handled nine days before the experiment and progressively habituated to be individually constrained in a plexiglass tube and to immobilization of their paralyzed hindlimbs with tape. • 1. Hmax and Mmax determination: the tibial nerve was stimulated for 0.2 ms at 0.2 Hz with increasing current intensities (1-6 mA in 0.2 mA increments) until Mmax was stabilized. • 2. A supramaximal single-pulse stimulation to elicit muscle spasms was fixed throughout the experiment (2 or 3 times the threshold intensity for M-wave) and evoked 5 times, with 60 s interstimulus intervals. EMG were rectified and averaged over 2000 ms interval post-stimulus to quantify spasms (Clamplit 8.0, Axon Instruments).
as §6
Modulation of Muscle Spasms. When the tibial nerve was stimulated in acutely (1 week after injury) injured rats, little reflexes were evoked in the FDB muscle (FIG. 8A), regardless of the stimulation intensity. In contrast, stimulation of the tibial nerve in chronic (5 weeks after injury) SCI rats produced more (P<0.0001; Mann-Whitney test; FIG. 8C) long-lasting muscle contractions (FIG. 8B). This effect is a reliable correlate of the development of spasticity. In spastic rats, spasms were induced through the FDB muscle after electrical stimulation of the tibial nerve. […]

[3] = tested on: myelin oligodendrocyte glycoprotein (MOG)-induced murine model of experimental autoimmune encephalomyelitis (EAE); assay: Electrophysiology (EMG, transcranial motor-evoked potentials) in EAE model; assay type: in vivo, C57BL/6J mice; conditions: for latency / latency until reaching the main event / peak-to-peak (P2P) amplitude: Day 10; for latency: vehicle 6.94±0.59 ms; for latency until reaching the main event: vehicle 10.05±2.59 ms; for peak-to-peak (P2P) amplitude: vehicle 7681.17±1505.12 μV; for rate of fibrillation (EMG): Day 21, vehicle printed 1.11±4.69 Hz
Experimental: (§7) The effect of Compound 1 on spasticity was evaluated in a myelin oligodendrocyte glycoprotein (MOG)-induced murine model of experimental autoimmune encephalomyelitis (EAE), a central nervous system (CNS) autoimmune demyelinating disease that mimics many of the clinical and pathologic features of multiple sclerosis. Gilgun-Sherki Y., et al., Neurosciences Research 47:201-207, 2003.
(§8) Study Design and Results. This study used sixty female young adult (10-11 weeks at study initiation) C57BL/6J mice sourced from Envigo RMS (Israel), Ltd. The animals were divided into five experimental groups:
(§9) Each group received a dose volume of 5 ml/kg, and the regimen was performed daily from day 0 to 22 of the study, QD. On study day 21, half of the animals in each group was treated and tested for electrophysiology and electromyography (EMG) two hours post dosing. On study day 22, the same was performed with the remaining half of the animals in each group.
(§10) FIG. 1 provides a representation of the study. Following baseline measurements, the MOG murine model begins with a sensitization period induced by the single subcutaneous (SC) injection of MOG emulsified in Complete Freund's adjuvant (CFA) on Study Day 0, followed by intraperitoneal (IP) supplemental immunostimulation with pertussis toxin (PT) carried out once at the day of EAE induction (study day 0) and once again 48 hours later (on study day 2). […] Mechanical allodynia was tested using the Von Frey test at Baseline and on Day 9 at various timepoints. For evaluation of spasticity, transcranial motor-evoked potentials (tcMEPs) were tested at Baseline and on Days 9 and 21-22 (half of the animals on each day). All animals were administered treatment once daily, starting on Day 0 until Day 22. Animals in Group 1 received oral (PO) treatment with the vehicle. Animals in Group 2 were treated with Fingolimod (FTY720; positive control) at a dose level of 3 mg/kg. PO. Animals in Groups 3 and 4 were treated with the test item Compound 1 at a dose level of 10 mg/kg or 3 mg/kg, PO, respectively. Animals in Group 5 were treated with Tizanidine at a dose level of 1 mg/kg, IP.
Electrophysiology: The animals were subjected to electrophysiology testing at Baseline and Days 10 and 21 of the study. The EMG, latency, latency to main event, duration, peak-to-peak (P2P) amplitude, and number of subpeaks were recorded.

[4] = tested on: myelin oligodendrocyte glycoprotein (MOG)-induced murine model of experimental autoimmune encephalomyelitis (EAE); assay: Mechanical allodynia evaluation (Von Frey testing) in EAE model; assay type: in vivo, C57BL/6J mice; conditions: Day 9
Experimental: as §7, §8, §10
Mechanical Allodynia Evaluation (Von Frey Testing): Animals were tested for mechanical allodynia using the Von Frey test at Baseline, and then on Day 9 at 0.5 hours ([…]), 1.5 hours, 3.5 hours (all groups) and 5.5 hours (Groups 1-4 only) post-dose.

[5] = tested on: myelin oligodendrocyte glycoprotein (MOG)-induced murine model of experimental autoimmune encephalomyelitis (EAE); assay: EAE clinical score and AUC; assay type: in vivo, C57BL/6J mice
Experimental: as §7, §8
as §10, with “Animals in Group 1 received oral (PO) treatment with the vehicle. Animals in Group 2 were treated with Fingolimod (FTY720; positive control) at a dose level of 3 mg/kg. PO. Animals in Groups 3 and 4 were treated with the test item Compound 1 at a dose level of 10 mg/kg or 3 mg/kg, PO, respectively. Animals in Group 5 were treated with Tizanidine at a dose level of 1 mg/kg, IP.” left out

[6] = tested on: myelin oligodendrocyte glycoprotein (MOG)-induced murine model of experimental autoimmune encephalomyelitis (EAE); assay: Body weight in MOG-induced EAE model; assay type: in vivo, C57BL/6J mice; conditions: for BW compared to vehicle group: throughout the study
Experimental: as §7, §8, §9
as §10, with “Animals in Group 5 were treated with Tizanidine at a dose level of 1 mg/kg, IP.” left out

[7] = both dose levels (10 and 3 mg/kg PO QD)

NCC(CC(=O)O)c1ccc(Cl)cc1 (stereo not drawn) [Baclofen, reference compound]
maximum effect, time (H-reflex RDD) ([1]; single P.O. 4.5 mg/kg): 5 h
onset of action (H-reflex RDD) ([1]; single P.O. 4.5 mg/kg): 1 h
mean relative amplitudes of the H-reflex (RDD) ([1]; single P.O. 4.5 mg/kg): significantly reduced
maximum effect, time (muscle spasms) ([2]; single P.O. 4.5 mg/kg): 2 h
muscle spasms (AUC) ([2]; single P.O. 4.5 mg/kg): reduced
onset of action (muscle spasms) ([2]; single P.O. 4.5 mg/kg): 1 h

CC(C)C[C@](C)(N)COc1ccc(-c2ccnc(C(F)F)c2)nc1C(F)F [Compound 1, (S)-1-((2′,6-bis(difluoromethyl)-[2,4′-bipyridin]-5-yl)oxy)-2,4-dimethylpentan-2-amine]
latency ([3]; 3 mg/kg PO QD): 5.31 ± 0.21 ms
latency until reaching the main event ([3]; 3 mg/kg PO QD): 5.32 ± 0.22 ms
peak-to-peak (P2P) amplitude ([3]; 3 mg/kg PO QD): 11321.67±1321.68 μV
rate of fibrillation (EMG) ([3]; 3 mg/kg PO QD): 0.38±0.38 Hz
latency ([3]; 10 mg/kg PO QD): 5.54 ± 0.22 ms
peak-to-peak (P2P) amplitude ([3]; 10 mg/kg PO QD): 11613.75±1154.41 μV
rate of fibrillation (EMG) ([3]; 10 mg/kg PO QD): 1.22±0.57 Hz
duration compared to vehicle treated animals [3, 7]: reduced
number of sub potentials compared to vehicle treated animals [3, 7]: reduced
withdrawal force threshold compared to the vehicle-treated group ([4]; 3 mg/kg PO, all timepoints post dosing): higher withdrawal force threshold compared to the vehicle-treated group
withdrawal force threshold (Von Frey) ([4]; 10 mg/kg PO, 1.5 hours post dosing, vehicle 0.89±0.11 g): 1.48 ± 0.10 g
withdrawal force threshold (Von Frey) ([4]; 10 mg/kg PO, 3.5 hours post dosing, vehicle 0.78±0.06 g): 1.36 ± 0.09 g
withdrawal force threshold (Von Frey) ([4]; 10 mg/kg PO, 5.5 hours post dosing, vehicle 0.82±0.08 g): 1.52 ± 0.13 g
clinical score compared to the vehicle ([5]; 10 mg/kg or 3 mg/kg PO QD): did not result in a significant reduction
mean relative amplitudes of the H-reflex (RDD), effect on spasticity ([1]; single P.O. 3 mg/kg): did not appear to affect spasticity
onset of action (H-reflex RDD) ([1]; single P.O. 10 mg/kg): 1 h
mean relative amplitudes of the H-reflex (RDD) ([1]; single P.O. 10 mg/kg): significantly reduced
duration of action (H-reflex RDD) ([1]; single P.O. 10 mg/kg): at least 6 hour
onset of action (H-reflex RDD) ([1]; single P.O. 30 mg/kg): 1 h
mean relative amplitudes of the H-reflex (RDD) ([1]; single P.O. 30 mg/kg): significantly reduced
duration of action (H-reflex RDD) ([1]; single P.O. 30 mg/kg): at least 6 hours
BW compared to vehicle group ([6]; 3 mg/kg PO QD): not significantly different from the vehicle group
BW compared to vehicle group ([6]; 10 mg/kg PO QD): not significantly different from the vehicle group
onset of action (muscle spasms) ([2]; single P.O. 3 mg/kg): 1 h
duration of action (muscle spasms) ([2]; single P.O. 3 mg/kg): 5 h
onset of action (muscle spasms) ([2]; single P.O. 10 mg/kg): 1 h
duration of action (muscle spasms) ([2]; single P.O. 10 mg/kg): 3 h
onset of action (muscle spasms) ([2]; single P.O. 30 mg/kg): 1 h
duration of action (muscle spasms) ([2]; single P.O. 30 mg/kg): 5 h
muscle spasms (AUC) ([2]; single P.O., all tested dosages (3, 10, 30 mg/kg), n=10): significantly reduced

Clc1ccc2nsnc2c1NC1=NCCN1 [Tizanidine, reference compound]
latency until reaching the main event ([3]; 1 mg/kg IP QD): 5.64 ± 0.19 ms
peak-to-peak (P2P) amplitude ([3]; 1 mg/kg IP QD): 13488.71±1234.10 μV
withdrawal force threshold (Von Frey) ([4]; 1 mg/kg IP, 3.5 hours post dosing, vehicle 0.78±0.06 g): 1.32 ± 0.15 g
withdrawal force threshold compared to vehicle ([4]; 1 mg/kg IP, all timepoints (0.5, 1.5, and 3.5 hours) post-dose): higher withdrawal force threshold
clinical score compared to the vehicle ([5]; 1 mg/kg IP QD): did not result in a significant reduction
maximum effect, time (H-reflex RDD) ([1]; single P.O. 3 mg/kg): 2 h
onset of action (H-reflex RDD) ([1]; single P.O. 3 mg/kg): 2 h
mean relative amplitudes of the H-reflex (RDD), effect on spasticity ([1]; single P.O. 3 mg/kg): significantly reduced
mean BW presented as percentage from Baseline ([6]; 1 mg/kg IP QD, Day 16, vehicle 82.06±2.35%): 91.31±1.59%
maximum effect, time (muscle spasms) ([2]; single P.O. 3 mg/kg): 3 h
muscle spasms (AUC) ([2]; single P.O. 3 mg/kg): reduced
onset of action (muscle spasms) ([2]; single P.O. 3 mg/kg): 2 h
